From patent US11781984B2, “Fluorescent method to quantify copper or platinum based on catalysis” (University of Pittsburgh—Of the Commonwealth System of …, priority 2018, dated 2023)

Key:
HeLa cells = experiment: Fluorescence imaging of copper ions in live HeLa cells; type: cell-based; conditions: HeLa cells loaded with 1 mM CuSO4, 20 μM PPE, 160 μM DMAPPP, 15 min
Method: Finally, we applied our method to imaging cellular pools of copper. HeLa cells were loaded with 1 mM CuSO4 in DMEM for 30 min at 37° C. The cells were washed. PPE and DMAPPP were added during imaging to a final concentration of 20 μM and 160 μM, respectively. Images were obtained on a Nikon Ti microscope equipped with a 60× (1.4 NA) objective.

[1] = Kinetic study to determine turnover frequency of copper-mediated depropargylation of PPE; conditions: 200 nM Cu^2+, 20 μM PPE, 160 μM DMAPPP
Method: To determine whether this method was a catalytic method, we monitored the reaction over time (FIG. 11). A standard curve was prepared for dichlorofluorescein (DCF) by dissolving the solid in EtOH to a concentration of 20 mM. The DCF was then diluted to 500 μM in EtOH. A stock solution was prepared by adding 500 mM pH 8.5 borate buffer (600 μL), EtOH (81.6 μL), 500 μM DCF in EtOH (32 μL), 20 mM DMAPPP in DMSO (6.4 μL). This stock solution (200 μL) was then transferred to a black 96-well plate.
The diluent was prepared by mixing 500 mM borate pH 8.5 buffer (9.00 mL), EtOH (1.70 mL), and 20 mM DMAPPP in DMSO (96 μL). The diluent (100 μL) was transferred to the black 96-well plate. 2× serial dilutions were performed by removing 100 μL of the stock solution from the wells and adding it to the wells containing the diluent. […] The fluorescence of these solutions was measured and a standard curve was generated.
The working solution was prepared by mixing 500 mM borate pH 8.5 buffer (1.20 mL), EtOH (187 μL), 800 μM PPE in EtOH (40 μL), 20 mM DMAPPP in DMSO (12.8 μL) in a conical tube. […] 0 or 2.0 μM Cu^2+ (20 μL) was then added to the wells and the fluorescence was measured every 5 min for 2 h.
The fluorescence value was converted to a concentration of Pittsburgh Green using the linear regression generated from the standard curve of DCF. The fluorescence vs. time was then plotted.

[2] = Fluorescence intensity of Pittsburgh Green versus PPE; type: physicochemical
Method: All fluorescence measurements were obtained using a Modulus II Microplate Multimode Reader. Fluorescence was measured after exciting samples with 490 nm light and emission was measured between 510-570 nm. All fluorescence measurements were obtained at room temperature.

Propargyl Pittsburgh Green ether [PPE]
fluorescence within cells (HeLa cells): time-dependent increase in fluorescence
concentration of reaction product (Pittsburgh Green) produced ([1]; after one hour): approximately 480 nM
turnover frequency ([1]; borate pH 8.5): ~2.4 per hour
ratio of fluorescence intensities Pittsburgh Green fluorophore : PPE [2]: 200-400 :1
